In patent publication US4524206A, “1-Heteroaryl-4-(2,5-pyrrolidinedion-1-yl)alkyl)piperazine derivatives” (Mead Johnson & Company, priority 1983, dated 1985):

Test: pharmacological profile from the in vivo screening tests and in vitro receptor binding (tranquilizing profile)
Conditions: potential indicated by test profile
Excerpt: The following in vivo screening tests were utilized as the basis to determine the tranquilizing profile and potential side-effect liabilities of the instant compounds.
As further indication of the psychotropic activity and specificity of the instant compounds, state of the art in vitro central nervous system receptor binding methodology can be employed. […] Inhibition of radiolabeled ligand binding to such specific high affinity sites is considered a measure of a compound's ability to affect corresponding central nervous system functions or cause side effects in vivo. This principle is employed in the following in vitro assay which is given by way of example.
Another test predictive of side effects measures protection against norepinephrine lethality. This procedure essentially relates to alpha-block and the unwanted side effects which accompany it, such as sedation and blood pressure lowering.

**Q.** With `O=C1CC(c2ccccc2)(c2ccccc2)C(=O)N1CCCCN1CCN(c2ncccn2)CC1` [Example 9, 3,3-Diphenyl-1-[4-[4-(2-pyrimidinyl)-1-piperazinyl]butyl]-2,5-pyrrolidinedione] as the compound, how does the pharmacological profile read?
**A.** selective anxiolytic potential

**Q.** With “3-(4-Fluorophenyl)-3-methyl-1-[4-[4-(2-pyrimidinyl)-1-piperazinyl]butyl]-2,5-pyrrolidinedione [Example 7]” as the compound, how does the pharmacological profile read?
**A.** potential non-dopaminergic antipsychotic activity

**Q.** Which pharmacological profile does the source give for `O=C1CC2(CCc3ccccc3C2)C(=O)N1CCCCN1CCN(c2ncccn2)CC1` (stereo not drawn) [Example 16, 1'-[4-[4-(2-Pyrimidinyl)-1-piperazinyl]butyl]spiro[1,2,3,4-tetrahydronaphthalene-2,3'-pyrrolidine-2',5'-dione]] here?
**A.** selective anxiolytic potential
